What was measured:
[1] = test system: TAMH cells; test: Microsequential injection-lab on valve glucose consumption and lactate production; format: cell-based, murine; conditions: 10-100 nM
Protocol: Detailed methods have been previously published (Schulz et al., Analyst 127:1583-1588 (2002)). Cytopore™ beads (Amersham Pharmacia Biotech, Upsala, Sweden) were hydrated in Hanks balanced salt solution (Gibco-BRL, Grand Island, N.Y.) and autoclaved according to manufacturers instructions. Beads were incubated in serum-containing media overnight. TAMH cells were transferred to the bead slurry at an approximate ratio of 50 cells per bead and grown in spinner culture flasks with gentle stirring. Beads were collected for metabolic studies at cell densities of approximately 100-500 cells/bead. For experiments, cell medium was replaced with HBSS. […]
Glucose and lactate concentrations were assayed as substrates in first-order NAD-linked enzymatic reactions, with NADH generation monitored by absorbance at 340 nm. […]
An assay cycle is initiated by packing a column of cells attached to beads in the microbioreactor, which is upstream of the LOV flow cell. […] After the stop flow period, 3 μL of the interstitial fluid from the cell column is injected through to the LOV flow cell previously loaded with glucose or lactate reagent and 340 nm absorbance recorded for 30 s after mixing. Calibration standards were used to convert endpoint absorbance to concentrations. […]

[2] = test system: mitochondria from TABX2S cells; test: Rhodamine 123 retention assay, isolated mitochondria; format: biochemical, murine; conditions: five minutes after addition
Protocol: (§1) Rh-123 is a cationic lipid-soluble fluorescent dye that accumulates in mitochondria in proportion to the mitochondrial membrane potential. Mitochondria were isolated from TABX2S cells (over-expressing Bcl-xL) and from control cells, prepared as described in Example 2. The isolated mitochondria were loaded with Rh-123 by incubation with 10 μM Rh-123 for 30 minutes, washing and resuspention in buffer. […] Less than 40% of Rh-123 was retained in antimycin A-treated TABX2S mitochondria, compared with greater than 80% retained in control mitochondria.

[3] = test system: control mitochondria; test: as above; format: biochemical, murine; conditions: five minutes after addition
Protocol: as §1

antimycin A
glucose uptake and lactate production [1]: increased glucose uptake and lactate production | Rh-123 retained [2]: Less than 40% | Rh-123 retained [3]: greater than 80%
